What was measured:
[1] = biological target: T1, progesterone receptor (PR) (Homo sapiens, UniProt P06401); experiment: Luciferase reporter selectivity assay in PC3 cells, PR; format: cell-based; settings: 24 h
T1 construct: expressed in transfected cells; host or cells: PC3
T1 sequence (P06401 1-933): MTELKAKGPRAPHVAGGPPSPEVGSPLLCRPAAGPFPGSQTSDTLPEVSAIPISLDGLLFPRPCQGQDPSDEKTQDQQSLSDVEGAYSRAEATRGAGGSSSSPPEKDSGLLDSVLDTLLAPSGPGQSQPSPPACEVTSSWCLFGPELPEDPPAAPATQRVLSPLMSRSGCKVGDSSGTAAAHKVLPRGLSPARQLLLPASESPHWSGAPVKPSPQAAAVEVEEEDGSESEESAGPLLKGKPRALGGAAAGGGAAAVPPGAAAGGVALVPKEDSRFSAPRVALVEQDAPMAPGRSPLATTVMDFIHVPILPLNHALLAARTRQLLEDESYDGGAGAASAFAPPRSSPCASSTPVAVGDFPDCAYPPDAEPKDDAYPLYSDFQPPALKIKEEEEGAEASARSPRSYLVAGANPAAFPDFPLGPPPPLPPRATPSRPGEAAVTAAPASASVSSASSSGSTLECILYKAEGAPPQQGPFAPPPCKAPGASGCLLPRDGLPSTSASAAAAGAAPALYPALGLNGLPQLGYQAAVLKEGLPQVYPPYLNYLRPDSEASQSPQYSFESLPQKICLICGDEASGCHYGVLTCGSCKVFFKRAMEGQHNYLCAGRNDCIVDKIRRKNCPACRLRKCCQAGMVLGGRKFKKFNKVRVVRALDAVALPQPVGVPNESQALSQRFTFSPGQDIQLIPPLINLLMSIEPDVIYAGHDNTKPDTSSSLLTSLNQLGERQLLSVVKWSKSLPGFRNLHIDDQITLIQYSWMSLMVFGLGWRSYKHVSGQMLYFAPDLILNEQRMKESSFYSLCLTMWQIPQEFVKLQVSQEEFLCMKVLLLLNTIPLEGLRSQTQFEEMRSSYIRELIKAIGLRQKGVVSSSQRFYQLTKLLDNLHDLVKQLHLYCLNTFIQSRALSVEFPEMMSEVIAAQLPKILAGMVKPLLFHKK
Experimental: Figure 4 Further activity profile of VPC-16606. (A,B) Chromatin immunoprecipitation (ChIP) analysis of ERα binding to the pS2 enhancer, or the GAPDH promoter, in MCF7 cells. Where indicated, ERα was stimulated with 1 nM E2 or dimethyl sulfoxide (DMSO) alone, and the compound was administered at a 6 μM concentration. Sheared chromatin-protein complexes were precipitated with the ERα antibody, reverse cross-linked and analyzed by quantitative PCR. The results are normalized as fold enrichment over precipitation with a rabbit isotype control IgG antibody for each condition tested. Error bars indicate standard error of the mean (SEM) for 3 independent experiments performed in triplicates. Fold enrichment from the compound tested condition (ERα antibody) was statistically compared against DMSO + E2 with a two-tailed t-test (unpaired) *** indicates p-value <0.001. (C) Specificity of VPC-16606 was evaluated in the luciferase reporter assay. PC3 cells were transfected with plasmids expressing androgen receptor (AR), progesterone receptor (PR) or glucocorticoid receptor (GR) along with their responsive luciferase reporter constructs bearing androgen response element (ARE), progesterone response element (PRE) or glucocorticoid response element (GRE), respectively. […] Y-axis represents relative luminescence (RLU) after normalizing to constitutive renilla reporter. […]

T47D cells = experiment: Presto Blue cell viability assay, T47D; format: cell-based, human; settings: 96 h, two-fold dilution starting at 50 µM
Experimental: The Presto Blue cell viability assay was used to assess the growth inhibitory potential of VPC-16606 on ERα^+ T47D, MCF7, ZR75-1 and TamR3 cells. They were treated for 96 h with a two-fold dilution range of the compound starting at 50 µM.
Cell viability was determined using the Presto Blue cell viability assay (Thermo Fisher Scientific, Waltham, MA, USA). Cells were seeded in clear bottom black-walled 96-well plates at a density of 5 × 10^3 cells/well in 100 μL of their respective media. On the following day, the cells were treated with test compounds (0.001–22.5 μM) in the presence of 1 nM E2 and incubated at 37 °C. After 96 h, 30 μL of Presto Blue reagent was added and incubated for 10 min at 37 °C. The fluorescent signal from viable cells was measured at 590 nm.

ERα− MDA-MB-231 cells = experiment: Presto Blue cell viability assay, MDA-MB-231; format: cell-based, human; settings: ERα− MDA-MB-231, 96 h

CC(=O)N(/N=C1\Sc2c(C)cccc2C1=O)c1ccccc1Cl [VPC-16606]
Effect on PR activity (luciferase) ([1]; 50 µM): some effect | Effect on PR activity (luciferase) ([1]; doses up to 25 µM): does not affect the activity | Cell growth (Presto Blue viability) (T47D cells): significantly reduce the growth | Cell growth (Presto Blue viability) (ERα− MDA-MB-231 cells): without any effect

Reference: PMC5855801, “Benzothiophenone Derivatives Targeting Mutant Forms of Estrogen Receptor-α in Hormone-Resistant Breast Cancers” (International Journal of Molecular Sciences, 2018)
